Our source for the RP-LC retention time values is the METLIN SMRT retention time set (Domingo-Almenara et al. 2019).

SMILES strings stand for the structures.

This data set is described as follows: gradient 5% acetonitrile 3 min, to 50% in 2 min, to 85% in 15 min, held 3 min, 100 µL/min. Conditions: column: Zorbax Extend-C18 2.1 x 50 mm; eluents: water / acetonitrile, 0.1% formic acid. In short, it runs like this:
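The mobile phases were water and acetonitrile, each with 0.1% formic acid, pumped at 100 μL/min through a Zorbax Extend-C18 column (2.1 × 50 mm, 1.8 μm). Pure standards were injected as mixtures of ~100 molecules and detected by a quadrupole time-of-flight mass spectrometer in positive and negative ionization mode. Retention time came from computationally picked adduct peaks, each inspected by hand.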
In the case of `Cc1ccccc1NC(=O)N1CCC(CCN)CC1`, the RP-LC retention time was 580 s. `CCN(CC)c1nc(C(=O)N2CCN(C3CCN(C)CC3)CC2)nc2nc(C)cc(C)c12` showed an RP-LC retention time of 540 s. The molecule `O=C(c1ccccc1OCC1CCCN(C2CCCCC2)C1)N1CCCCC1` (stereo not given) showed an RP-LC retention time of 594 s. Regarding `Cn1cc(C(=O)NCc2cccs2)c2cccnc21`, the RP-LC retention time was 691 s. In turn, `CCc1ccc(-c2csc(Nc3ccc(F)cn3)n2)cc1` came in with an RP-LC retention time of 1190 s.

In the case of `CCC(C)C(NC(=O)Cc1ccccc1Cl)C(=O)Nc1nc2ccccc2[nH]1` (stereo not given), the RP-LC retention time was determined as 776 s. Turning to `CC1(C(=O)NCc2ccccc2)CCCN(C(=O)Nc2ccccc2C(F)(F)F)C1` (stereo not given), the RP-LC retention time amounted to 958 s.

In the case of `CN(CCNC(=O)c1ccc2c(c1)N(S(C)(=O)=O)CC2)C1CCCCC1`, the RP-LC retention time was 610 s. With `Cc1cc(C(=O)NCCN2CCCCC2)c2cc(Br)ccc2n1`, the RP-LC retention time is 567 s. Regarding `O=C(Nc1cccc(C(F)(F)F)c1)Nc1c(-c2ccncc2)nc2ccccn12`, the RP-LC retention time stood at 655 s. Take `O=C1N(c2cccc(Cl)c2)c2ncccc2S(=O)(=O)N1Cc1ccccc1`: the RP-LC retention time was found to be 1100 s. `CCc1ccc(S(=O)(=O)N2CCC3(CC2)NCCN=C3NCc2cccc(OC)c2)cc1`: the RP-LC retention time was found to be 775 s. The same measure for `CCOc1ccc(N(C)C(=O)C2CCN(S(=O)(=O)c3ccc4c(c3)sc(=O)n4C)CC2)cc1`: 885 s. `O=C(CN1C(=O)CCc2cc(Br)ccc21)N1CCN(c2ncccn2)CC1` gave an RP-LC retention time of 786 s.

The molecule `CCn1ccnc1N1CCN(C(=O)c2ccccc2C(F)(F)F)CC1` gave an RP-LC retention time of 555 s. Consider `CCCCNC(=O)C1CCN(S(C)(=O)=O)c2cc(Cl)ccc2O1` (stereo not given), for which the RP-LC retention time worked out at 887 s. `CC1CCCN(C(=O)c2cn(-c3ccc(-c4nc(C5CC5)no4)cn3)cn2)C1` (stereo not given) came in with an RP-LC retention time of 840 s.

The molecule `CCCn1cc(C(=O)N2CCCc3ccccc32)c2nn(-c3ccccc3)c(=O)c-2c1` displayed an RP-LC retention time of 836 s. `COc1ccc(N2CCN(S(=O)(=O)c3cc(-c4cc(C(F)(F)F)on4)sc3C)CC2)cc1` yielded an RP-LC retention time of 1270 s.

`O=C(NCc1cccs1)C1CCN(c2cc(-n3ccnc3)ncn2)CC1` yielded an RP-LC retention time of 564 s. `Cc1cc(F)ccc1NC(=O)Cn1cccc1-c1nnc(C2CCC2)o1` came in with an RP-LC retention time of 916 s. As to `COc1ccc(CCNC(=O)Cn2nc3c(Oc4ccccc4)nccn3c2=O)cc1OC`, the RP-LC retention time was found to be 700 s.

`CCCn1nccc1-c1csc(S(=O)(=O)N2CCCC2)c1`: the RP-LC retention time turned out to be 912 s.

`COC(=O)c1ccc2c(=O)n(-c3cccc(F)c3)c(N3CCCCC3)nc2c1` showed an RP-LC retention time of 1150 s. The molecule `Cc1ccc(NS(=O)(=O)c2cc(-c3nc(C(C)C)cs3)cs2)cc1C` yielded an RP-LC retention time of 1260 s.

Turning to `CC(C)NC(=O)c1cc(C2CC2)[nH]n1`, the RP-LC retention time turned out to be 644 s. `FC(F)(F)Oc1ccc(CN2CCN(c3cnn4cnnc4c3)CC2)cc1` returned an RP-LC retention time of 611 s. Molecule `CCNC(=O)c1sc(-c2ccc(C)cc2)nc1C` yielded an RP-LC retention time of 850 s. The result for `O=C(C1=CN(c2ccc(Cl)cc2)c2ccccc2S1(=O)=O)N1CCOCC1` reads 791 s; that for `COC(=O)c1ccc(C(=O)NCCN2CCN(C(=O)OC(C)(C)C)CC2)cc1`, 580 s.

In turn, `CCC(CC)NC(=O)C1CCN(c2cn[nH]c(=O)c2)CC1` came in with an RP-LC retention time of 604 s.

On to `O=S(=O)(Nc1ccc(Cn2cncn2)cc1)c1ccc(F)cc1F`, for which the RP-LC retention time was determined as 714 s. The same measure for `COc1cccc2c(Nc3ccccc3)cc(C(=O)N3CCSCC3)nc12`: 656 s. The result for `COc1ccc(OC)c(-c2cn3ccn(-c4cccc(Cl)c4C)c(=O)c3n2)c1` reads 924 s; that for `Cc1ccc(-c2cc3n(n2)CCCN(C(=O)c2ccc(C)s2)C3)cc1`, 948 s; that for `O=C(CCn1cnc2c(-c3ccccc3)noc2c1=O)NCCCN1CCc2ccccc2C1`, 679 s. The same measure for `CC(=O)c1ccc(NC(=O)Cn2ccc3ccc(-c4nnc(C)o4)cc32)cc1`: 743 s; for `COC(=O)c1sccc1NC(=O)Cn1cc(-c2nc(-c3ccc(Cl)cc3)no2)ccc1=O`: 1100 s. In turn, `CC(=O)CC(c1ccccc1)C1C(=O)Oc2ccccc2C1=O` (stereo not given) came in with an RP-LC retention time of 1000 s. In turn, `Cc1ccc2c(Nc3ccc(C)c(C)c3)c(C(=O)N3CCCC(C)C3)cnc2n1` (stereo not given) came in with an RP-LC retention time of 681 s. `COCCN(Cc1ccncc1)C(=O)c1ccc2nsnc2c1`: the RP-LC retention time came out at 544 s. `O=c1c2nnc3ccnn3c2ccn1CCc1c[nH]c2ccc(F)cc12` registered an RP-LC retention time of 709 s. On to `Cc1cc2c(=O)n(CC(=O)Nc3cccc(Cl)c3C)ccc2s1`, for which the RP-LC retention time was 819 s.

`O=C(c1n[nH]c2ccccc12)N1CCCn2nc(-c3ccncc3)cc2C1`: the RP-LC retention time turned out to be 603 s. As for `O=C(Cn1cnc2nc(N3CCC(C(=O)NC4CC4)CC3)sc2c1=O)NCc1ccc(F)cc1`, the RP-LC retention time came out at 655 s. In turn, `CSc1ccc(CNC(=O)Cc2nnc(-c3ccc4ncccc4c3)o2)cc1` showed an RP-LC retention time of 716 s. The same measure for `COc1ccc(-c2c(C)noc2NC(C)=O)cc1S(=O)(=O)N1CCCCCC1`: 788 s; for `COc1cccc(-n2c(=O)c3sccc3n(Cc3nc(-c4ccccc4C)no3)c2=O)c1`: 1000 s; for `CCCCN(C)C(=O)Cn1c(=O)c2cnc(-c3ccc(Cl)cc3)nc2n(CC)c1=O`: 1190 s. The same measure for `Nc1ccc2c(c1Cl)C(=O)c1ccc(N)c(Cl)c1C2=O`: 854 s; for `COCCN1C(=O)c2ccccc2C(C(=O)NCc2cccc(F)c2)C12CCCC2` (stereo not given): 866 s. In turn, `COc1ccc(OC)c2sc(N(CCN(C)C)C(=O)c3nc4ccccc4s3)nc12` gave an RP-LC retention time of 715 s.

For `COc1ccc(-n2cc(C(=O)OCc3cccnc3)c3ccccc3c2=O)cc1`, the RP-LC retention time was 745 s.

The molecule `O=C(Cn1c(=O)oc2ccccc21)N1C[C@H]2C[C@H](C1)[C@H]1CCCC(=O)N1C2` came in with an RP-LC retention time of 658 s. `CCOC(=O)c1noc2nc(C)nc(N3CCc4ccccc4C3)c12` gave an RP-LC retention time of 1120 s.

`Cc1nc(C)c(C(=O)NCC23CCCC=C2NC(=O)CC3)s1` (stereo not given) had an RP-LC retention time of 633 s. Molecule `CCOc1ccccc1-c1csc(NC(=O)Cc2csc(C)n2)n1` had an RP-LC retention time of 943 s. The molecule `O=C1CCCN1CCCN(CC(=O)N1CCNCC1)C(=O)c1ccc(Cl)cc1` registered an RP-LC retention time of 586 s. Consider `Cc1noc(C)c1S(=O)(=O)N1CCC(c2noc(-c3ccccc3)n2)C1` (stereo not given), for which the RP-LC retention time turned out to be 1010 s. The same measure for `COCCSc1nc(-c2cccs2)cc(C(F)(F)F)c1C#N`: 1120 s.
